target: T1, PD-1/PD-L1 interaction (Homo sapiens, UniProt Q9NZQ7); experiment: PD-1/PD-L1 Homogenous Time-Resolved Fluorescence (HTRF) binding assay (CisBio kit); conditions: Biochemical PD1/PD-L1 inhibition
T1 construct: Tag1 (undisclosed kit tag); purchased CisBio 63ADK000CPAPEG
Procedure: PD-L1 Enzyme Assay: Homogenous Time-Resolved Fluorescence (HTRF) Binding Assay
All binding studies were performed using PD-1/PD-L1 Binding Assay Kit from CisBio (Catalog #63ADK000CPAPEG), according to the manufacturer's protocol. The interaction between Tag1-PD-1 and […] was detected by anti-Tag1-Eu^3+ (HTRF donor) and anti-Tag2-XL665 (HTRF acceptor). When the donor and acceptor antibodies were brought to close proximity due to PD-1 and PD-L1 binding, excitation of the donor antibody triggered fluorescent resonance energy transfer (FRET) towards the acceptor antibody, which in turn emitted specifically at 665 nm. This specific signal is positively proportional to PD-1/PD-L1 interaction. The compounds blocking PD-1/PD-L1 interaction will cause a reduction in HTRF signal. The necessary reagents were mixed in the following order: 2 μl compounds (or diluents buffer), 4 μl PD-L1 protein, 4 μl PD-1 protein. After an incubation of 15 minutes, 5 μl of anti-Tag1-Eu^3+ and 5 μl of anti-Tag2-XL665 were added. The plate was sealed and incubated at room temperature for 1 h. The fluorescence emission was read at two different wavelengths (665 nm and 620 nm) on a BMG PheraStar® multi-plate reader. Results were calculated from the 665 nm and 620 nm fluorescence signal and expressed in HTRF ratio=(665 nm/620 nm)×10^4.

T1 sequence (Q9NZQ7 19-238 limits assumed): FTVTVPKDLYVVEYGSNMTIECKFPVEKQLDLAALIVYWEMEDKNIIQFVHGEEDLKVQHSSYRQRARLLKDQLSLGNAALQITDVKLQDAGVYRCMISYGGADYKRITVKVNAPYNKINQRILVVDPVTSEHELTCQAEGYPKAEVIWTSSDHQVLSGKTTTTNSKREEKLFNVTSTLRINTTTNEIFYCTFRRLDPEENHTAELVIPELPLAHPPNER

First: Cc1c(COc2ccc(CN(C)CC(=O)O)c3c2CCC3)cccc1-c1ccccc1 [Compound 22, N-methyl-N-((7-((2-methyl-[1,1′-biphenyl]-3-yl)methoxy)-2,3-dihydro-1H-inden-4-yl)methyl)glycine]
Second: Cc1c(COc2ccc(CNC(C)CC(=O)O)c3c2CCC3)cccc1-c1ccccc1 (centres unmarked) [Compound 23, 3-(((7-((2-methyl-[1,1′-biphenyl]-3-yl)methoxy)-2,3-dihydro-1H-inden-4-yl)methyl)amino)butanoic acid]
The IC50 of the first is lower: 0.1 to 0.5 µM for the first, over 0.5 µM for the second.

First: Cc1c(COc2ccc(CNC(C)C(=O)O)c3c2CCC3)cccc1-c1ccccc1 (centres unmarked) [Compound 24, ((7-((2-methyl-[1,1′-biphenyl]-3-yl)methoxy)-2,3-dihydro-1H-inden-4-yl)methyl)alanine]
Second: Cc1c(COc2ccc(CN3CCCC[C@H]3C(=O)O)c3c2CCCC3)cccc1-c1ccccc1 [Compound 27, 1-((4-((2-methyl-[1,1′-biphenyl]-3-yl)methoxy)-5,6,7,8-tetrahydronaphthalen-1-yl)methyl)piperidine-2-carboxylic acid]
The IC50 of the first is higher: over 0.5 µM for the first, 0.1 to 0.5 µM for the second. The second is the more potent here.

Compared with COc1cc(OCc2cccc(-c3ccccc3)c2C)c2c(c1CN1C[C@H](O)C[C@H]1C(=O)O)CCC2 [Compound 25, (2S,4R)-4-hydroxy-1-((5-methoxy-7-((2-methyl-[1,1′-biphenyl]-3-yl)methoxy)-2,3-dihydro-1H-inden-4-yl)methyl)pyrrolidine-2-carboxylic acid], COc1cc(OCc2cccc(-c3ccccc3)c2C)c2c(c1CN1CCCC[C@H]1C(=O)O)CCC2 [Compound 26, (S)-1-((5-methoxy-7-((2-methyl-[1,1′-biphenyl]-3-yl)methoxy)-2,3-dihydro-1H-inden-4-yl)methyl)piperidine-2-carboxylic acid] is higher in IC50: under 0.1 µM for the first, 0.1 to 0.5 µM for the second.

First: CC(=O)NCCNCc1cc(C)c(OCc2cccc(-c3ccccc3)c2C)c2c1CCC2 [Compound 28, N-(2-(((6-methyl-7-((2-methyl-[1,1′-biphenyl]-3-yl)methoxy)-2,3-dihydro-1H-inden-4-yl)methyl)amino)ethyl)acetamide]
Second: CC(=O)NCCNCc1cc(Cl)c(OCc2cccc(-c3ccccc3)c2C)c2c1CCC2 [Compound 30, N-(2-(((6-chloro-7-((2-methyl-[1,1′-biphenyl]-3-yl)methoxy)-2,3-dihydro-1H-inden-4-yl)methyl)amino)ethyl)acetamide]
The IC50 of the first is higher: over 0.5 µM for the first, 0.1 to 0.5 µM for the second.

Cc1cc(CN2C[C@H](O)C[C@H]2C(=O)O)c2c(c1OCc1cccc(-c3ccccc3)c1C)CCC2 [Compound 29, (2S,4R)-4-hydroxy-1-((6-methyl-7-((2-methyl-[1,1′-biphenyl]-3-yl)methoxy)-2,3-dihydro-1H-inden-4-yl)methyl)pyrrolidine-2-carboxylic acid] and Cc1c(COc2c(Cl)cc(CN3C[C@H](O)C[C@H]3C(=O)O)c3c2CCC3)cccc1-c1ccccc1 [Compound 31, (2S,4R)-1-((6-chloro-7-((2-methyl-[1,1′-biphenyl]-3-yl)methoxy)-2,3-dihydro-1H-inden-4-yl)methyl)-4-hydroxypyrrolidine-2-carboxylic acid] fall in the same range of IC50: 0.1 to 0.5 µM for the first, 0.1 to 0.5 µM for the second.

First: COc1cc(OCc2cccc(-c3cccc(OCCCN4CCC(F)(F)C4)c3C)c2C)c2c(c1CNCCNC(C)=O)CCC2 [Compound 32, N-(2-(((7-((3′-(3-(3,3-difluoropyrrolidin-1-yl)propoxy)-2,2′-dimethyl-[1,1′-biphenyl]-3-yl)methoxy)-5-methoxy-2,3-dihydro-1H-inden-4-yl)methyl)amino)ethyl)acetamide]
Second: COc1cc(OCc2cccc(-c3cccc(OCCCN4CCC(F)(F)C4)c3C)c2C)c2c(c1CN1C[C@H](O)C[C@H]1C(=O)O)CCC2 [Compound 33, (2S,4R)-1-((7-((3′-(3-(3,3-difluoropyrrolidin-1-yl)propoxy)-2,2′-dimethyl-[1,1′-biphenyl]-3-yl)methoxy)-5-methoxy-2,3-dihydro-1H-inden-4-yl)methyl)-4-hydroxypyrrolidine-2-carboxylic acid]
The IC50 of the first is lower: 0.1 to 0.5 µM for the first, over 0.5 µM for the second. The first is the more potent here.

CC(=O)NCCNCc1c(OCc2cccc(C#N)c2)cc(OCc2cccc(-c3ccccc3)c2C)c2c1CCC2 [Compound 34, N-(2-(((5-((3-cyanobenzyl)oxy)-7-((2-methyl-[1,1′-biphenyl]-3-yl)methoxy)-2,3-dihydro-1H-inden-4-yl)methyl)amino)ethyl)acetamide] and CC(=O)NCCNCc1c(OCc2cncc(C#N)c2)cc(OCc2cccc(-c3ccccc3)c2C)c2c1CCC2 [Compound 48, N-(2-(((5-((5-cyanopyridin-3-yl)methoxy)-7-((2-methyl-[1,1′-biphenyl]-3-yl)methoxy)-2,3-dihydro-1H-inden-4-yl)methyl)amino)ethyl)acetamide] cannot be ordered by IC50: under 0.1 µM for the first, under 0.1 µM for the second.

Cc1c(COc2cc(OCc3cccc(C#N)c3)c(CN3C[C@H](O)C[C@H]3C(=O)O)c3c2CCC3)cccc1-c1ccccc1 [Compound 35, (2S,4R)-1-((5-((3-cyanobenzyl)oxy)-7-((2-methyl-[1,1′-biphenyl]-3-yl)methoxy)-2,3-dihydro-1H-inden-4-yl)methyl)-4-hydroxypyrrolidine-2-carboxylic acid] and Cc1c(COc2cc(OCc3cncc(C#N)c3)c(CN3C[C@H](O)C[C@H]3C(=O)O)c3c2CCC3)cccc1-c1ccccc1 [Compound 47, (2S,4R)-1-((5-((5-cyanopyridin-3-yl)methoxy)-7-((2-methyl-[1,1′-biphenyl]-3-yl)methoxy)-2,3-dihydro-1H-inden-4-yl)methyl)-4-hydroxypyrrolidine-2-carboxylic acid] cannot be ordered by IC50: under 0.1 µM for the first, under 0.1 µM for the second.

Cc1c(COc2cc(OCc3cccc(C#N)c3)c(CN3CCCC[C@H]3C(N)=O)c3c2CCC3)cccc1-c1ccccc1 [Compound 37, (S)-1-((5-((3-cyanobenzyl)oxy)-7-((2-methyl-[1,1′-biphenyl]-3-yl)methoxy)-2,3-dihydro-1H-inden-4-yl)methyl)piperidine-2-carboxamide] and Cc1c(COc2cc(OCc3cccc(C#N)c3)c(CN3CCCC(O)C3)c3c2CCC3)cccc1-c1ccccc1 (centres unmarked) [Compound 40, 3-(((4-((3-hydroxypiperidin-1-yl)methyl)-7-((2-methyl-[1,1′-biphenyl]-3-yl)methoxy)-2,3-dihydro-1H-inden-5-yl)oxy)methyl)benzonitrile] cannot be ordered by IC50: under 0.1 µM for the first, under 0.1 µM for the second.

Cc1c(COc2cc(OCc3cccc(C#N)c3)c(CNC(CO)(CO)CO)c3c2CCC3)cccc1-c1ccccc1 [Compound 38, 3-(((4-(((1,3-dihydroxy-2-(hydroxymethyl)propan-2-yl)amino)methyl)-7-((2-methyl-[1,1′-biphenyl]-3-yl)methoxy)-2,3-dihydro-1H-inden-5-yl)oxy)methyl)benzonitrile] and Cc1c(COc2cc(OCc3cncc(C#N)c3)c(CNC(CO)(CO)CO)c3c2CCC3)cccc1-c1ccccc1 [Compound 49, 5-(((4-(((1,3-dihydroxy-2-(hydroxymethyl)propan-2-yl)amino)methyl)-7-((2-methyl-[1,1′-biphenyl]-3-yl)methoxy)-2,3-dihydro-1H-inden-5-yl)oxy)methyl)nicotinonitrile] cannot be ordered by IC50: under 0.1 µM for the first, under 0.1 µM for the second.

First: Cc1c(COc2cc(OCc3cccc(C#N)c3)c(CN3CC4(COC4)C3)c3c2CCC3)cccc1-c1ccccc1 [Compound 39, 3-(((4-((2-oxa-6-azaspiro[3.3]heptan-6-yl)methyl)-7-((2-methyl-[1,1′-biphenyl]-3-yl)methoxy)-2,3-dihydro-1H-inden-5-yl)oxy)methyl)benzonitrile]
Second: Cc1c(COc2cc(OCc3cccc(C#N)c3)c(CN3CC4(CC4)C[C@H]3C(=O)O)c3c2CCC3)cccc1-c1ccccc1 [Compound 42, (S)-5-((5-((3-cyanobenzyl)oxy)-7-((2-methyl-[1,1′-biphenyl]-3-yl)methoxy)-2,3-dihydro-1H-inden-4-yl)methyl)-5-azaspiro[2.4]heptane-6-carboxylic acid]
The IC50 of the first is higher: 0.1 to 0.5 µM for the first, under 0.1 µM for the second.

Cc1c(COc2cc(OCc3cccc(C#N)c3)c(CNCC(=O)O)c3c2CCC3)cccc1-c1ccccc1 [Compound 41, ((5-((3-cyanobenzyl)oxy)-7-((2-methyl-[1,1′-biphenyl]-3-yl)methoxy)-2,3-dihydro-1H-inden-4-yl)methyl)glycine] and Cc1c(COc2cc(OCc3cccc(C#N)c3)c(CNCCCC(=O)O)c3c2CCC3)cccc1-c1ccccc1 [Compound 44, 4-(((5-((3-cyanobenzyl)oxy)-7-((2-methyl-[1,1′-biphenyl]-3-yl)methoxy)-2,3-dihydro-1H-inden-4-yl)methyl)amino)butanoic acid] cannot be ordered by IC50: under 0.1 µM for the first, under 0.1 µM for the second.

Cc1c(COc2cc(OCc3cncc(C#N)c3)c(CN3CCCC[C@H]3C(=O)O)c3c2CCC3)cccc1-c1ccccc1 [Compound 46, (S)-1-((5-((5-cyanopyridin-3-yl)methoxy)-7-((2-methyl-[1,1′-biphenyl]-3-yl)methoxy)-2,3-dihydro-1H-inden-4-yl)methyl)piperidine-2-carboxylic acid] and Cc1c(COc2cc(OCc3cncc(C#N)c3)c(CN3CCOC[C@H]3C(=O)O)c3c2CCC3)cccc1-c1ccccc1 [Compound 50, (S)-4-((5-((5-cyanopyridin-3-yl)methoxy)-7-((2-methyl-[1,1′-biphenyl]-3-yl)methoxy)-2,3-dihydro-1H-inden-4-yl)methyl)morpholine-3-carboxylicacid] cannot be ordered by IC50: under 0.1 µM for the first, under 0.1 µM for the second.
